Tests used:
TANK-2 enzyme = TANK-2 enzyme (Homo sapiens (Human), UniProt Q9H2K2); assay: In vitro Scintillation Proximity Assay (SPA) for TANK-2 inhibitory activity; type: biochemical; conditions: auto-poly(ADP-ribosyl)ation, [3H]-NAD+, Ni flash plates (96 or 384 well)
Description: C.2.In Vitro Scintillation Proximity Assay (SPA) for TANK-2 Inhibitory Activity
Compounds of the present invention were tested in an in vitro assay based on SPA technology with Ni Flash plates (96 or 384 well).
In principle, the assay relies upon SPA technology for the detection of auto-poly(ADP-ribosyl)ation of TANK-2 protein using [^3H]-nicotinamide adenine dinucleotide ([^3H]-NAD^+) as ADP-ribosyl donor.
A stock solution of 100 nM [^3H]-NAD^+/NAD (0.1 mCi/ml, supplier: Perkin Elmer) and 25 μM NAD (Sigma) was made in assay buffer (60 mM Tris/HCl, pH 7.4; 0.9 mM DTT; 6 mM MgCl2). The TANK-2 enzyme was produced as described in EP1238063. 60 μl of assay buffer, together with 1 μl of compound in DMSO, 20 μl of [^3H]-NAD^+/NAD and 20 μl of TANK-2 enzyme (final concentration 8 μg/ml) was added per well into a 96-well Ni-coated flash plate (Perkin Elmer). After incubation of the mixture for 120 minutes at room temperature, the reaction was terminated by adding 60 μl of stopsolution (42.6 mg NAD in 6 ml H2O). The plates were covered with a plate sealer and placed in a TopCountNXT™ (Packard) for scintillation counting. Values were expressed as counts per minute (cpm). For each experiment, controls (containing TANK-2 enzyme and DMSO without compound), a blank incubation (containing DMSO but no TANK-2 enzyme or compound) and samples (containing TANK-2 enzyme and compound dissolved in DMSO) were run in parallel. All compounds tested were dissolved and eventually further diluted in DMSO. In first instance, compounds were tested at a concentration of 10^−5M. […] In each test, the blank value was subtracted from both the control and the sample values. The control sample represented maximal TANK-2 enzyme activity. For each sample, the amount of cpm was expressed as a percentage of the mean cpm value of the controls. […] Herein the effects of test compounds are expressed as pIC50 (the negative log value of the IC50-value). As reference compounds, 3-aminobenzamide and 4-amino-1,8-naphtalimide were included to validate the SPA assay. Herein the assay was described using 96-well plates. In the assay using 384-well plates the same final concentrations were used and volumes were adapted.

tubulin = assay: Tubulin polymerization assay; type: biochemical; conditions: inhibition of polymerization at 20 μM and 5 μM
Description: Example C.5 Polymerization Assay
The tubulin polymerization assay is an adaptation of an assay originally described by Bonne, D. et al. (J. Biol. Chem., 1985, 260:2819-25). The assay kit was purchased from Cytoskeleton, Inc. (catalogue number BK011) and the assay was performed as described by the supplier with the following modifications. The assay was run in a 384-well black Proxiplate (Perkin Elmer) and volumes were adapted accordingly. The reactions were carried out in a final volume of 10 μl. Compounds were added to 25 μl of the reaction mix in 96-well PP plates (Corning) on ice and 10 μl of this mixture was dispensed into duplicates of the 384-well Proxiplates pre-warmed to 37° C. in a Fluoroskan Ascent plate reader (Thermo Scientific). Fluorescence measurements were taken every minute for one hour. The maximum slope of each well was determined (linear regression through 4 consecutive points) and polymerization was calculated as a percentage of polymerization observed in the absence of compound.

[1] = tested on: human prostate cancer PC3 cells; assay: Eb1 Comet (microtubule disruption) assay; type: cell-based; conditions: 1 hour treatment, LAC = concentration where Eb1 foci absent in at least 50% of treated cells
Excerpt: Example C.6 Eb1 Comet (Microtubule Disruption) Assay
The Eb1 Comet assay relies on the detection of the Eb1 protein at the plus end of polymerizing microtubules (Mimori-Kiyosue, 2000) using indirect immunofluorescence. Disruption of microtubule dynamics through de-polymerization or stabilization results in a de-localization of Eb1 from the growing microtubule ends and this is visualized by the disappearance of Eb1 containing cytoplasmic foci.
Briefly, human prostate cancer PC3 cells obtained from the American Type Culture Collection were grown in 96-well plates (Greiner, cat. no. 655090) in HAM's F12 medium as recommended by the provider (ATCC). The cells were treated for 1 hour at 37° C. with compounds dissolved in DMSO (0.6% final DMSO concentration). The culture medium was then removed by aspiration and the cells were fixed by adding cold methanol (−20 C). After a 15 minutes incubation at −20° C., the cells were washed twice with DPBS (Gibco) containing 0.5% Triton X-100. Mouse Eb1 antibody (BD Transduction Laboratories, cat. no. 610534) was added to the cells (1/250 dilution in DPBS containing 1% BSA) and incubated overnight at room temperature. The antibody was subsequently removed and the cells washed twice with DPBS, 0.5% Triton X-100. Secondary goat anti-mouse antibody conjugated to Alexa 488 fluorescent dye (Molecular Probes) was added at a 1/500 dilution in DPBS, 1% BSA and incubated for 1 hour at 37° C. The cells were washed twice with DPBS, 0.5% Triton X-100 and then DPBS containing 0.5% Triton X-100 and 1/5000 Hoechst 33342 (Molecular Probes) was added. Microscopy based Eb1 foci visualization was carried out using an IN Cell Analyser 1000 (Amersham Biosciences) using a 20× objective. Compound dependent microtubule disruption was visually determined by the disappearance in Eb1 foci. The lowest active concentration (LAC) was determined as the concentration where Eb1 foci were absent in at least 50% of the treated cells. Herein the effects of tested compounds are expressed as pLAC (the negative log value of the LAC value) (see Table 3).

[2] = tested on: Human colon carcinoma HCT116 cells; assay: Detection of antiproliferative activity (Alamar Blue assay); type: cell-based; conditions: HCT-116, 96 h, 4-day incubation, read-out: Cellular assay HCT116 pIC50 (converted)
Description: Example C.4 Detection of Antiproliferative Activity
Human colon carcinoma HCT116 cells obtained from the ATCC were cultured in McCoy's 5A medium supplemented with 2 mM L-Glutamine, 50 μg/ml gentamicin and 10% heat inactivated fetal calf serum.
Reagents used in the Alamar Blue Assay
Resazurin was purchased from Aldrich (Prod. No. 199303). Potassium ferrocyanide, potassium ferricyanide, KH2PO4 and K2HPO4 were purchased from Sigma (Prod. Nos. P9387, P8131, P5655 and P8281, respectively).
Potassium Phosphate Buffer 0.1 M (PPB) was made as follows: 2.72 gram KH2PO4 and 13.86 gram K2HPO4 were dissolved in 500 ml milli-Q H2O, the pH was adjusted to pH 7.4 and the volume was brought to 1 liter with milli-Q H2O; the buffer was filter sterilised and stored at room temperature. Resazurin stock solution (PPB-A) was prepared fresh by dissolving 45 mg resazurin in 15 ml PBS. 30 mM potassium ferricyanide (PPB-B) was prepared by dissolving 0.987 gram potassium ferricyanide in 100 ml PPB. 30 mM potassium ferrocyanide (PPB-C) was prepared by dissolving 1.266 gram potassium ferrocyanide in 100 ml PPB.
Mixture of PPB-A, PPB-B and PPB-C was prepared by mixing equal volumes of the respective solutions. Resazurin work solution (herein termed “Alamar Blue” solution) was prepared by diluting said mixture 20× (vol/vol) in PPB and filter sterilising; the Alamar Blue solution could be kept at 4° C. for a maximum of 2 weeks.
Procedure of the Alamar Blue Assay
For experiments in 384 wells plates the cells were seeded at a density of 4.5×10^3 cells/ml in Falcon 384-well culture plates (Life Technologies, Merelbeke, Belgium), black with clear bottom, in 45 μl culture medium. Cells were allowed to adhere to plastic for 24 hours. The tested compound was pre-diluted (1/50 in culture medium) and 5 μl pre-diluted compound was added to the wells. Following 4-day incubation, 10 μl of the Alamar Blue solution was added to each well and the cells were further incubated for 4 hours (HCT116) or 24 hours (PC-3) at 37° C. The fluorescence intensity was measured for each well on a Fluorescence plate reader (Fluorskan, Labsystems, 540 nm excitation and 590 nm emission)
The antiproliferative activity was calculated as percentage of remaining viable cells in treated versus control (untreated cells) conditions. Within an experiment, the result for each experimental condition is the mean of 3 replicate wells. When appropriate, the experiments were repeated to establish full concentration-response curves. […] Herein the effects of tested compounds are expressed as pIC50 (the negative log value of the IC50 value) (see Table 3).

Chain of TANK-2 enzyme (Q9H2K2 whole entry): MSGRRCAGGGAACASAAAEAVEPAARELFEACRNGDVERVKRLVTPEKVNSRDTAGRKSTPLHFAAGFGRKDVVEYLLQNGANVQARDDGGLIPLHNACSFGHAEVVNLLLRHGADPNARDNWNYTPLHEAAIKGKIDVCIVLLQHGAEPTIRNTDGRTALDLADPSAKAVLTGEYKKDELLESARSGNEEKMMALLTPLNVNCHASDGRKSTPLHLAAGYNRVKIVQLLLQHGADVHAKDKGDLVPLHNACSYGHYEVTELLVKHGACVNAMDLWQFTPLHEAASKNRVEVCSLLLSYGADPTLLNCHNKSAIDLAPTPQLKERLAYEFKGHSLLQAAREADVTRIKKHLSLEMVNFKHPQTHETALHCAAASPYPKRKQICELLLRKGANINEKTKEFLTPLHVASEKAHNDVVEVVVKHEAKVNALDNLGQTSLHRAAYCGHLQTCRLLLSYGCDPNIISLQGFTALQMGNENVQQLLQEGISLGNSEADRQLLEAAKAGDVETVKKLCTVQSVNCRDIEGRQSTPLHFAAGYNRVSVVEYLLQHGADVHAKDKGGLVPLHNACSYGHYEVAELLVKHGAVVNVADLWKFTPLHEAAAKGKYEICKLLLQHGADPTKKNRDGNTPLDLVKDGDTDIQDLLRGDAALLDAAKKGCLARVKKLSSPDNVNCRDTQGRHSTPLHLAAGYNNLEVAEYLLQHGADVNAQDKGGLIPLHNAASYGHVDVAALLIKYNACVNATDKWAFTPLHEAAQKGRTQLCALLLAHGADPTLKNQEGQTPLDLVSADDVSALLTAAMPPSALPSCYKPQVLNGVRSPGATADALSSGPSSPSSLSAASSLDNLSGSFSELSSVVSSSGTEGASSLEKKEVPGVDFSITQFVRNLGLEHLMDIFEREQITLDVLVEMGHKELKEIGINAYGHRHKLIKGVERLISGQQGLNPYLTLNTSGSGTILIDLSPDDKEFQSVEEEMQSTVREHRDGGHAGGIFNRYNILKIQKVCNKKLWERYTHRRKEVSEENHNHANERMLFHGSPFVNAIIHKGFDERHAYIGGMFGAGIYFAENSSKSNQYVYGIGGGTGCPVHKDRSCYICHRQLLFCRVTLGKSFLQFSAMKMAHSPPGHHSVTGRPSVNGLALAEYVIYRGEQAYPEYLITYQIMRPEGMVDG

COc1cc(OC)nc(CC(C)(C#N)c2ccc3c4c(c(=O)[nH]c3c2)CCCC4)n1 (stereo not shown) [Co. No. 6]
in vitro SPA assay TANK-2 pIC50 (TANK-2 enzyme): 7.72
Assay Tubulin Polymerization score (tubulin): 3 (a compound showing more than 50% inhibition at 5 μM is reported as score 3)
Cellular assay Eb1 pLAC [1]: 8
IC50 [2]: 57.5 nM
